This is an account of results in ChEMBL document CHEMBL1140600, “Recent advances in proton pump inhibitors and management of acid-peptic disorders” (Bioorg Med Chem, 2007).

Structures are written as SMILES.

A short description of one data set: Dissociation constant, pKa of the compound. The format is physicochemical.
The compound `COc1ccnc(C[S+]([O-])c2nc3ccc(OC(F)F)cc3[nH]2)c1OC` (stereo unspecified) [PANTOPRAZOLE] yielded a pKa of 4.
Regarding `Cc1c(OCC(F)(F)F)ccnc1C[S+]([O-])c1nc2ccccc2[nH]1` (stereo unspecified) [LANSOPRAZOLE], the pKa amounted to 4.
Compound `COc1ccc2nc([S@@+]([O-])Cc3ncc(C)c(OC)c3C)[nH]c2c1` [ESOMEPRAZOLE] displayed a pKa of 4.
On the same count and under the same terms, next, `COCCCOc1ccnc(C[S+]([O-])c2nc3ccccc3[nH]2)c1C` (stereo unspecified) [RABEPRAZOLE]: 5.

The nature of a further data set: Inhibition of H+/K+ ATPase.
Compound `CCOC(=O)c1cnc(C[S+]([O-])c2nc3ccccc3[nH]2)nc1N(C)C` (stereo unspecified) displayed an IC50 of 7.5 µM.
Same read-out and setting: next, `COc1ccc2[nH]c([S+]([O-])Cc3ncc(C)c(OC)c3C)nc2c1` (stereo unspecified) [OMEPRAZOLE]: 5.8 µM.

What is called pKa is the pH at which an ionisable group is half protonated. Low values mean a group that gives up its proton readily, high ones a group that holds its proton tightly. What is called IC50 is the concentration needed to halve the response being measured. A high value points to weaker potency in that assay.
